From patent US10791989B2, “Magnetic resonance imaging of poly-L-glutamate” (The Trustees of The University of Pennsylvania, priority 2013, dated 2020)

How the values were obtained:
[1] = molecular target: T1, cathepsin B (Homo sapiens, UniProt P07858); test: CEST imaging of phantoms (glutamate, PLG, PLG+cathepsin B) on 7T whole-body scanner; type: biochemical; details: phantom, room temperature; for CEST contrast at 3 ppm: substance alone
Protocol: (§1) Both the CEST imaging and MRS were performed.

[2] = molecular target: T1, cathepsin B; test: Proton MRS of phantoms (PLG+cathepsin B) on 7T whole-body scanner; type: biochemical; details: phantom with PLG and cathepsin B
Protocol: as §1

[3] = system: F98 tumor cells; details: after addition of PLG vs without PLG, 9.4 T
Protocol: as §1
F98 cell line is known to be aggressive and expresses cathepsin B and other proteases.

Molecule | CEST contrast at 3 ppm [1] | CEST contrast at 3 ppm after addition of cathepsin B ([1]; PLG with cathepsin B) | MR spectrum change with cathepsin B [2] | increase in CEST contrast at 3 ppm [3] [%]
N[C@@H](CCC(=O)O)C(=O)O [Glu, glutamate] | strong CEST contrast | – | – | –
Poly(L-glutamic acid) [PLG] | No CEST contrast | appreciable CEST contrast | cleavage of 2.3 and 4.1 ppm peaks | −16
